Here are results for two compounds from BindingDB's records for patent US20230365530 (The Asean Foundation, 2023).

The target of this experiment is T1, Histone-lysine N-methyltransferase EHMT2 (Homo sapiens, UniProt Q96KQ7).
T1 sequence (Q96KQ7 whole entry): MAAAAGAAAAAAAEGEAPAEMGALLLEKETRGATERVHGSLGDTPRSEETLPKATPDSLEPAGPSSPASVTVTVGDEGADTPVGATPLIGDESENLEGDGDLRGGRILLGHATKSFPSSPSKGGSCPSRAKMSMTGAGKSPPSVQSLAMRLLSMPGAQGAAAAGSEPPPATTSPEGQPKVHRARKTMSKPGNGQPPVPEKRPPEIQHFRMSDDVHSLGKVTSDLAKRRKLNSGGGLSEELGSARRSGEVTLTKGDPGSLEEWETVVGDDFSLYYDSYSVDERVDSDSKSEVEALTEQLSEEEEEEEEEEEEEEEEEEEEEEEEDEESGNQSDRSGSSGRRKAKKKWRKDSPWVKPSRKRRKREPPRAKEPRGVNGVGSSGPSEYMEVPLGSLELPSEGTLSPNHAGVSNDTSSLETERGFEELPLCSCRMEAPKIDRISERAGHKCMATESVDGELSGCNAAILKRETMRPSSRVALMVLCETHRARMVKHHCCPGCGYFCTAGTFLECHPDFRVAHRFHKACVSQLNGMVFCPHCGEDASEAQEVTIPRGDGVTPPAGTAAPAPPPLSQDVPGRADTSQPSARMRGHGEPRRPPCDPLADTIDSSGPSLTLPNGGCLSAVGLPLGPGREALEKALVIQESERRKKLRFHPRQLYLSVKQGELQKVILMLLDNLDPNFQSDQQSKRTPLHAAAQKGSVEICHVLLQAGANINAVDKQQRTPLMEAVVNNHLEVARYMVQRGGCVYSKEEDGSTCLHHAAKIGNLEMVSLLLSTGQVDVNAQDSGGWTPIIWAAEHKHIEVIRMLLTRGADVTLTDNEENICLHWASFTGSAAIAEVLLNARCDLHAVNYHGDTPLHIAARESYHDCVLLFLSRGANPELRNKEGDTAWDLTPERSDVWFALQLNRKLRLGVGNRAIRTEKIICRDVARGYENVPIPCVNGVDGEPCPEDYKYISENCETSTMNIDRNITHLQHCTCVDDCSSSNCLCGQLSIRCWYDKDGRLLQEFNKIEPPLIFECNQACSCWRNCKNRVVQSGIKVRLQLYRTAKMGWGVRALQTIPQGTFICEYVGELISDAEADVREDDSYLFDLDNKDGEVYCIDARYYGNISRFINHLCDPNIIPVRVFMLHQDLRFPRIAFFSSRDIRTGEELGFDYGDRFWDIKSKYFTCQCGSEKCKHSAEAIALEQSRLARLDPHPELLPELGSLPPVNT
The experiment can be described thus: Enzyme Inhibitory Efficacy Assay. As to the method:
Specific experimental methods are as follows. First, the compounds of Examples 1 to 89 of 1 nM to 100 μM (4 conc.) were put into a 384 well plate (25 μL/well), and 2 μM […] enzyme (4 conc.) was put into the 384 well plate (25 μL/well). The plate was then centrifuged at 1,500 rpm for 5 seconds after sealing the plate with plate sealing foil. After incubating the EHMT2/G9a enzyme, SAM, and the compounds of Examples above at room temperature for 10 minutes, 2 μM histone H3 peptide (4 conc.) was added to the 384-well plate (25 μL/well). After sealing the plate with plate sealing foil and centrifuging at 1,500 rpm for 5 seconds, an enzymatic reaction was performed at room temperature for 1 hour. Upon completion of the enzyme reaction, 5 μL each of 200 nM Ulight -Streptavidin (4 conc.) and 8 nM Eu-antibody (4 conc.) was added to each well of the plate. The plate was sealed with plate sealing foil, centrifuged at 1,500 rpm for 5 seconds and reacted at room temperature for 1 hour. The signal values were measured with Envision (Ex 320 nm, Em 665 nm), and all background values obtained by reacting without enzyme were deleted from the measured raw data values.

Broadly, the IC50 is the concentration at which inhibition is half-maximal. The low end stands for greater potency, the high end for weaker potency.

Bounds are passed on as bounds.

For the compound `COc1cc2c(NC3CCN(C(C)C)CC3)nc(N(C)CC(=O)OC(C)(C)C)nc2cc1C#CCCN1CCCC1` [US20230365530, Example 82], the IC50 was less than 100 nM.
To `COc1cc2c(NC3CCN(C(C)C)CC3)nc(N3CC(F)(F)C3)nc2cc1C#CCCN1CCCC1` [US20230365530, Example 58] belongs less than 100 nM.
